# Measurements published in patent publication US20260374773A1, “MULTI-CYCLIC IRAK AND FLT3 INHIBITING COMPOUNDS AND USES THEREOF” (CHILDREN'S HOSPITAL MEDICAL CENTER, priority 2022, published 2026).
# Biological target: T1, FLT3 K663Q (Homo sapiens, UniProt P36888, K663Q)
# T1 sequence (P36888 27-993 K663Q): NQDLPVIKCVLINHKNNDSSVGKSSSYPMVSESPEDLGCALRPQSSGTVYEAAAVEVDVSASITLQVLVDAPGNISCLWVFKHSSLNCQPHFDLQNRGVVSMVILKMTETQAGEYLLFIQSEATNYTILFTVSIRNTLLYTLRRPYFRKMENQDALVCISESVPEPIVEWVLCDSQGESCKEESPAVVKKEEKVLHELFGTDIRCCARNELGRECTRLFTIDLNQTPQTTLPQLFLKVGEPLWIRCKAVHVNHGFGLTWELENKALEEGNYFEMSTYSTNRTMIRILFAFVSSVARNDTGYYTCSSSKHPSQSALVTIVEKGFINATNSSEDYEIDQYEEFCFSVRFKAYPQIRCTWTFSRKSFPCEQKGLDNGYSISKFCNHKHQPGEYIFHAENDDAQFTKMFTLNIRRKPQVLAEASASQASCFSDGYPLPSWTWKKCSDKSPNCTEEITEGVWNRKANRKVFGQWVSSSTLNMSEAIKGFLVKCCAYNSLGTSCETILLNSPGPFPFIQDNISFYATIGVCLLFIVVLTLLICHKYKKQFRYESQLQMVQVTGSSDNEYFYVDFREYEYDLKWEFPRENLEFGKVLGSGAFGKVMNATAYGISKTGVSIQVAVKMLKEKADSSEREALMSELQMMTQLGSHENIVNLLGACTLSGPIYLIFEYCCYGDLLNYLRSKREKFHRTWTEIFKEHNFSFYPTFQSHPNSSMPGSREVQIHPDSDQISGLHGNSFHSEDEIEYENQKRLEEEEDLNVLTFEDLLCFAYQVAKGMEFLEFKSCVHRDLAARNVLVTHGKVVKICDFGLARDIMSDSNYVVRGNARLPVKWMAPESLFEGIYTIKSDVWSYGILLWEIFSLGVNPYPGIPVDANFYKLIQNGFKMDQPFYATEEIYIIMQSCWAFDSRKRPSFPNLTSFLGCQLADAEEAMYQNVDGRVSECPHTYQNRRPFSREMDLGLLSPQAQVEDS
# Assay: DiscoverX KINOMEscan active site-directed competition binding, FLT3 K663Q
# Conditions: Table 13; no ATP
# Description: (§1) Kinase binding data were obtained for various exemplary compounds prepared according to Examples 1-8 using the DiscoverX KINOMEscan® active site-directed competition binding site-directed assay protocol described below. […] As a result, the data report thermodynamic interaction affinities (Kd values), rather than IC50 values that are dependent on ATP concentrations. The assay uses a DNA-tagged version of the protein kinase, and an immobilized ligand bound to a solid support. Compounds that directly or indirectly prevent kinase binding to the immobilized ligand reduce the amount of kinase captured on the solid support, which is detected using an ultra-sensitive qPCR method. Affinity constants reported from the assay have been reported to be independent of the immobilized ligand used that is coupled to the solid support (See supplemental information in Fabian, M. A. et. al., (2005) Nat. Biotechnol. 23, 329-336; Wodicka, L. M. et. al., (2010) Chem. Biol. 17, 1241-1249.)
# Kinase-tagged T7 phage strains were prepared in an E. coli host derived from the BL21 strain. E. coli were grown to log-phase and infected with T7 phage and incubated with shaking at 32 °C until lysis. The lysates were centrifuged and filtered to remove cell debris. The remaining kinases were produced in HEK-293 cells and subsequently tagged with DNA for qPCR detection. Streptavidin-coated magnetic beads were treated with biotinylated small molecule ligands for 30 minutes at room temperature to generate affinity resins for kinase assays. The liganded beads were blocked with excess biotin and washed with blocking buffer (SeaBlock (Pierce), 1% BSA, 0.05% Tween 20, 1 mM DTT) to remove unbound ligand and to reduce non-specific binding. […] Test compounds were prepared as 111x stocks in 100% DMSO. Kds were determined using an 11-point 3-fold compound dilution series with three DMSO control points. All compounds for Kd measurements are distributed by acoustic transfer (non-contact dispensing) in 100% DMSO. The compounds were then diluted directly into the assays such that the final concentration of DMSO was 0.9%. All reactions were performed in polypropylene 384-well plates. Each was a final volume of 0.02 mL. The assay plates were incubated at room temperature with shaking for 1 hour and the affinity beads were washed with wash buffer (1×PBS, 0.05% Tween 20). The beads were then re-suspended in elution buffer (1×PBS, 0.05% Tween 20, 0.5 μM nonbiotinylated affinity ligand) and incubated at room temperature with shaking for 30 minutes. The kinase concentration in the eluates was measured by qPCR. Binding constants (Kds) were calculated with a standard dose-response curve using the Hill equation. The Hill Slope was set to −1. Curves were fitted using a non-linear least square fit with the Levenberg-Marquardt algorithm.
# as §1, with “9-12” for “1-8”
# Kinase-tagged T7 phage strains were prepared in an E. coli host derived from the BL21 strain. […]
row,Kd [nM],Structure (SMILES)
1,< 0.17,"COc1cn2ncc(-c3nc(N[C@H]4CNCC[C@@H]4F)c(C#N)cc3F)c2nc1C1CC1 [Compound 7, 6-(5-cyclopropyl-6-methoxypyrazolo[1,5-a]pyrimidin-3-yl)-5-fluoro-2-(((3S,4S)-4-fluoropiperidin-3-yl)amino)nicotinonitrile]"
2,1.6,"COc1cn2ncc(-c3nc(N[C@H]4CNCC[C@@H]4F)c(F)cc3F)c2nc1C(C)(C)O [Compound 13, 2-(3-(3,5-difluoro-6-(((3S,4S)-4-fluoropiperidin-3-yl)amino)pyridin-2-yl)-6-methoxypyrazolo[1,5-a]pyrimidin-5-yl)propan-2-ol]"
3,1.1,"COc1cn2ncc(-c3nc(N[C@H]4CNCC[C@@H]4F)c(C#N)cc3F)c2nc1C(C)(C)O [Compound 10, 5-fluoro-2-(((3S,4S)-4-fluoropiperidin-3-yl)amino)-6-(5-(2-hydroxypropan-2-yl)-6-methoxypyrazolo[1,5-a]pyrimidin-3-yl)nicotinonitrile]"

# Same assay, conditions: Table 19; no ATP
row,Structure (SMILES),Kd [nM]
1,"COc1cn2ncc(-c3cncc(N[C@H]4CNCC[C@@H]4F)n3)c2nc1C1CC1 [Compound 12a, 6-(5-cyclopropyl-6-methoxypyrazolo[1,5-a]pyrimidin-3-yl)-N-((3S,4S)-4-fluoropiperidin-3-yl)pyrazin-2-amine]",0.44
2,"COc1cn2ncc(-c3ccnc(N[C@H]4CNCC[C@@H]4F)n3)c2nc1C1CC1 [Compound 7a, 4-(5-cyclopropyl-6-methoxypyrazolo[1,5-a]pyrimidin-3-yl)-N-((3S,4S)-4-fluoropiperidin-3-yl)pyrimidin-2-amine]",0.82
3,"COc1cn2ncc(-c3nc(N[C@@H]4CCCNC4)ncc3F)c2nc1C1CC1 [Compound 14a, (R)-4-(5-cyclopropyl-6-methoxypyrazolo[1,5-a]pyrimidin-3-yl)-5-fluoro-N-(piperidin-3-yl)pyrimidin-2-amine]",< 0.17

# Further lines, results first:
row,Kd [nM],Structure (SMILES)
1,2,"COc1cn2ncc(-c3nc(N[C@H]4CNCC[C@@H]4F)ncc3F)c2nc1C(C)(C)O [Compound 6a, 2-(3-(5-fluoro-2-(((3S,4S)-4-fluoropiperidin-3-yl)amino)pyrimidin-4-yl)-6-methoxypyrazolo[1,5-a]pyrimidin-5-yl)propan-2-ol]"
2,0.21,"COc1cn2ncc(-c3nc(N[C@H]4CNCC[C@@H]4F)ncc3F)c2nc1C1CC1 [Compound 15a, 4-(5-cyclopropyl-6-methoxypyrazolo[1,5-a]pyrimidin-3-yl)-5-fluoro-N-((3S,4S)-4-fluoropiperidin-3-yl)pyrimidin-2-amine]"
